Usually IC50 stands for the concentration that inhibits the measured activity by half.

Each structure is given as a SMILES string. Positions of bridges follow the written chain, without caps; N, C: chain ends. Non-standard residues stand in square brackets, D forms with d. Residues, ends and D or L forms follow the SMILES beside them. ξ: configuration not given here. Phe(3-CN) = N#Cc1cccc(C[C@H](N)C(=O)O)c1; Phe(3-F) = N[C@@H](Cc1cccc(F)c1)C(=O)O; Phe(3-Me) = Cc1cccc(C[C@H](N)C(=O)O)c1; Phe(4-Me) = Cc1ccc(C[C@H](N)C(=O)O)cc1; Ahp(2) = CCCCC[C@H](N)C(=O)O; NMeNle = CCCC[C@H](NC)C(=O)O; Tle = CC(C)(C)[C@H](N)C(=O)O; NHexGly = CCCCCCNCC(=O)O; Nle = CCCC[C@H](N)C(=O)O; Orn = NCCC[C@H](N)C(=O)O; ξD = NC(CC(=O)O)C(=O)O; ξS = NC(CO)C(=O)O

The record followed here is patent US20240218022A1, “ANTI-VISTA MACROCYCLIC PEPTIDES AND COMPOSITIONS” (BRISTOL-MYERS SQUIBB COMPANY, priority 2022, published 2024).

One test has as its target T1, mouse VISTA (mVISTA) (Mus musculus, UniProt Q9D659).
T1 construct: expressed in transfected cells; host or cells: Human embryonic kidney 293T cells
T1 sequence (Q9D659 33-308): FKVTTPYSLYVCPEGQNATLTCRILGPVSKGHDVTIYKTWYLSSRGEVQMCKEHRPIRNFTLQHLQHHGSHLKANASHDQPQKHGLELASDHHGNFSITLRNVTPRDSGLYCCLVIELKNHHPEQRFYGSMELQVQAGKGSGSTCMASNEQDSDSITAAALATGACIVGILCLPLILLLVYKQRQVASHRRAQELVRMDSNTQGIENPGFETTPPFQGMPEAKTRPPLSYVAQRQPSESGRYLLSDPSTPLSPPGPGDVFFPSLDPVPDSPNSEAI
The experiment in a line: Cell-Based Binding High-Content Assay For mVISTA (HC CBA mVISTA). The settings on record: read-out: HC CBA mVISTA IC50. A digest of the protocol:
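293T cells expressing mouse VISTA, with compounds added either after seeding ("no wash") or before seeding and then washed out after 1 h. Biotinylated peptide 2 nM for 30 min at room temperature, then detection with Alexa 647–streptavidin. After fixation with Hoechst stain, plates were high-content imaged; IC50 from four-parameter logistic fit.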
Regarding `CCCCCCN1CC(=O)N[C@@H](Cc2ccc(O)cc2)C(=O)N[C@@H](CC(C)C)C(=O)N[C@@H](CC(N)=O)C(=O)N[C@@H](CCCNC(=N)N)C(=O)N(C)[C@@H](CCCC)C(=O)N[C@@H](CCCCC)C(=O)N2CCC[C@H]2C(=O)N[C@@H](C(C)(C)C)C(=O)N[C@@H](CO)C(=O)N[C@H](C(=O)NCC(N)=O)CSCC(=O)N[C@@H](Cc2ccccc2)C(=O)N[C@@H](Cc2cccc(C#N)c2)C(=O)N[C@@H](CC(=O)O)C1=O` [compound 1340] ({CH2CO}-F[Phe(3-CN)]D[NHexGly]YLNR[NMeNle][Ahp(2)]P[Tle]SCG-NH2; thioether N-14), the 50% inhibitory concentration (IC50) came to 0.0368 µM. For `CCCCCCN1CC(=O)N[C@@H](Cc2ccc(O)cc2)C(=O)N[C@@H](CC(C)C)C(=O)N[C@@H](CC(N)=O)C(=O)N[C@@H](CCCNC(=N)N)C(=O)N(C)[C@@H](CCCC)C(=O)N[C@@H](CCCCC)C(=O)N2CCC[C@H]2C(=O)N[C@@H](C(C)(C)C)C(=O)N[C@@H](CO)C(=O)N[C@H](C(=O)NCC(N)=O)CSCC(=O)N[C@@H](Cc2ccccc2)C(=O)N[C@@H](Cc2cccc(F)c2)C(=O)N[C@@H](CC(=O)O)C1=O` [compound 1341] ({CH2CO}-F[Phe(3-F)]D[NHexGly]YLNR[NMeNle][Ahp(2)]P[Tle]SCG-NH2; thioether N-14), the IC50 came out at 0.0191 µM. The same measure, in the same setting: the value for `CCCCCCN1CC(=O)N[C@@H](Cc2ccc(O)cc2)C(=O)N[C@@H](CCCC)C(=O)N[C@@H](CC(=O)O)C(=O)N[C@@H](CCCNC(=N)N)C(=O)N(C)[C@@H](CCCC)C(=O)N[C@@H](CCCCC)C(=O)N2CCC[C@H]2C(=O)N[C@@H](C(C)C)C(=O)N[C@@H](CC(=O)O)C(=O)N[C@H](C(=O)NC(CC(=O)O)C(N)=O)CSCC(=O)N[C@@H](Cc2ccccc2)C(=O)N[C@@H](Cc2cccc(C)c2)C(=O)N[C@@H](CC(=O)O)C1=O` (stereo partly drawn) [compound 1342] ({CH2CO}-F[Phe(3-Me)]D[NHexGly]Y[Nle]DR[NMeNle][Ahp(2)]PVDC[ξD]-NH2; thioether N-14) was 0.0125 µM. For the compound `CCCCCCN1CC(=O)N[C@@H](Cc2ccc(O)cc2)C(=O)N[C@@H](CCCC)C(=O)N[C@@H](CC(=O)O)C(=O)N[C@@H](CCCN)C(=O)N(C)[C@@H](CCCC)C(=O)N[C@@H](CCCCC)C(=O)N2CCC[C@H]2C(=O)N[C@@H](C(C)C)C(=O)N[C@@H](CC(=O)O)C(=O)N[C@H](C(=O)NC(CC(=O)O)C(N)=O)CSCC(=O)N[C@@H](Cc2ccccc2)C(=O)N[C@@H](Cc2cccc(C)c2)C(=O)N[C@@H](CC(=O)O)C1=O` (stereo partly drawn) [compound 1343] ({CH2CO}-F[Phe(3-Me)]D[NHexGly]Y[Nle]D[Orn][NMeNle][Ahp(2)]PVDC[ξD]-NH2; thioether N-14), the IC50 is 0.0178 µM. With `CCCCCCN1CC(=O)N[C@@H](Cc2ccc(O)cc2)C(=O)N[C@@H](CCCCC)C(=O)N[C@@H](CC(N)=O)C(=O)N[C@@H](CCCNC(=N)N)C(=O)N(C)[C@@H](CCCC)C(=O)N[C@@H](CCCCC)C(=O)N2CCC[C@H]2C(=O)N[C@@H](C(C)C)C(=O)N[C@@H](C(C)C)C(=O)N[C@H](C(=O)NCC(=O)O)CSCC(=O)N[C@@H](Cc2ccccc2)C(=O)N[C@@H](Cc2cccc(C)c2)C(=O)N[C@@H](CC(=O)O)C1=O` [compound 1344] ({CH2CO}-F[Phe(3-Me)]D[NHexGly]Y[Ahp(2)]NR[NMeNle][Ahp(2)]PVVCG-OH; thioether N-14), the IC50 came out at 0.011 µM. Still for that read-out and setting: the figure for `CCCCCCN1CC(=O)N[C@@H](Cc2ccc(O)cc2)C(=O)N[C@@H](CCCC)C(=O)N[C@@H](CC(N)=O)C(=O)N[C@@H](CCCNC(=N)N)C(=O)N(C)[C@@H](CCCC)C(=O)N[C@@H](CCCCC)C(=O)N2CCC[C@H]2C(=O)N[C@@H](C(C)C)C(=O)N[C@@H](CC(=O)O)C(=O)N[C@H](C(=O)NCC(=O)O)CSCC(=O)N[C@@H](Cc2ccccc2)C(=O)N[C@@H](Cc2cccc(C)c2)C(=O)N[C@@H](CC(=O)O)C1=O` [compound 1345] ({CH2CO}-F[Phe(3-Me)]D[NHexGly]Y[Nle]NR[NMeNle][Ahp(2)]PVDCG-OH; thioether N-14) is 0.0127 µM. In the case of `CCCCCCN1CC(=O)N[C@@H](Cc2ccc(O)cc2)C(=O)N[C@@H](CCCCC)C(=O)N[C@@H](CC(N)=O)C(=O)N[C@@H](CCCNC(=N)N)C(=O)N(C)[C@@H](CCCC)C(=O)N[C@@H](CCCCC)C(=O)N2CCC[C@H]2C(=O)N[C@@H](C(C)C)C(=O)N[C@@H](C(C)C)C(=O)N[C@H](C(=O)NC(CO)C(=O)O)CSCC(=O)N[C@@H](Cc2ccccc2)C(=O)N[C@@H](Cc2cccc(C)c2)C(=O)N[C@@H](CC(=O)O)C1=O` (stereo partly drawn) [compound 1346] ({CH2CO}-F[Phe(3-Me)]D[NHexGly]Y[Ahp(2)]NR[NMeNle][Ahp(2)]PVVC[ξS]-OH; thioether N-14), the half-inhibitory concentration (IC50) amounted to 0.0061 µM. On the same count and under the same terms, the value for `CCCCCCN1CC(=O)N[C@@H](Cc2ccc(O)cc2)C(=O)N[C@@H](CCCC)C(=O)N[C@@H](CC(=O)O)C(=O)N[C@@H](CCCNC(=N)N)C(=O)N(C)[C@@H](CCCC)C(=O)N[C@@H](CCCCC)C(=O)N2CCC[C@H]2C(=O)N[C@@H](C(C)C)C(=O)N[C@@H](CC(=O)O)C(=O)N[C@H](C(=O)NC(CO)C(N)=O)CSCC(=O)N[C@@H](Cc2ccccc2)C(=O)N[C@@H](Cc2cccc(C)c2)C(=O)N[C@@H](CC(=O)O)C1=O` (stereo partly drawn) [compound 1347] ({CH2CO}-F[Phe(3-Me)]D[NHexGly]Y[Nle]DR[NMeNle][Ahp(2)]PVDC[ξS]-NH2; thioether N-14) was 0.0106 µM; that for `CCCCCCN1CC(=O)N[C@@H](Cc2ccc(O)cc2)C(=O)N[C@@H](CCCC)C(=O)N[C@@H](CC(=O)O)C(=O)N[C@@H](CCCN)C(=O)N(C)[C@@H](CCCC)C(=O)N[C@@H](CCCCC)C(=O)N2CCC[C@H]2C(=O)N[C@@H](C(C)C)C(=O)N[C@@H](CC(=O)O)C(=O)N[C@H](C(=O)NC(CO)C(N)=O)CSCC(=O)N[C@@H](Cc2ccccc2)C(=O)N[C@@H](Cc2cccc(C)c2)C(=O)N[C@@H](CC(=O)O)C1=O` (stereo partly drawn) [compound 1348] ({CH2CO}-F[Phe(3-Me)]D[NHexGly]Y[Nle]D[Orn][NMeNle][Ahp(2)]PVDC[ξS]-NH2; thioether N-14) was 0.0232 µM; that for `CCCCCCN1CC(=O)N[C@@H](Cc2ccc(O)cc2)C(=O)N[C@@H](CC(C)C)C(=O)N[C@@H](CC(N)=O)C(=O)N[C@@H](CCCNC(=N)N)C(=O)N(C)[C@@H](CCCC)C(=O)N[C@@H](CCCCC)C(=O)N2CCC[C@H]2C(=O)N[C@@H](C(C)(C)C)C(=O)N[C@@H](CO)C(=O)N[C@H](C(=O)NCC(N)=O)CSCC(=O)N[C@@H](Cc2ccccc2)C(=O)N[C@@H](Cc2ccc(C)cc2)C(=O)N[C@@H](CC(=O)O)C1=O` [compound 1349] ({CH2CO}-F[Phe(4-Me)]D[NHexGly]YLNR[NMeNle][Ahp(2)]P[Tle]SCG-NH2; thioether N-14) was 0.0436 µM.

Still in this test, the particulars now being: the 19th table, scaffold drawing 22; read-out: HC CBA mVISTA IC50.
On to `CCCCCCN1CC(=O)N[C@@H](Cc2ccc(O)cc2)C(=O)N[C@@H](CCCC)C(=O)N[C@@H](CC(=O)O)C(=O)N[C@@H](CCCN)C(=O)N[C@@H](CC(C)C)C(=O)N[C@@H](CCCCC)C(=O)N2CCC[C@H]2C(=O)N[C@@H](C(C)C)C(=O)N[C@@H](CC(=O)O)C(=O)N[C@H](C(=O)N[C@@H](CC(=O)O)C(N)=O)CSCC(=O)N[C@@H](Cc2cccc(C)c2)C(=O)N[C@@H](Cc2c[nH]c3ccccc23)C(=O)N[C@@H](CC(=O)O)C1=O` [compound 1418] ({CH2CO}-[Phe(3-Me)]WD[NHexGly]Y[Nle]D[Orn]L[Ahp(2)]PVDCD-NH2; thioether N-14), for which the concentration for half-maximal inhibition (IC50) came out at 0.0076 µM. Same read-out and setting: the figure for `CCCCCCN1CC(=O)N[C@@H](Cc2ccc(O)cc2)C(=O)N[C@@H](CCCC)C(=O)N[C@@H](CC(=O)O)C(=O)N[C@@H](CCCNC(=N)N)C(=O)N[C@@H](CC(C)C)C(=O)N[C@@H](CCCCC)C(=O)N2CCC[C@H]2C(=O)N[C@@H](C(C)C)C(=O)N[C@@H](CC(=O)O)C(=O)N[C@H](C(=O)N[C@@H](CC(=O)O)C(N)=O)CSCC(=O)N[C@@H](Cc2cccc(C)c2)C(=O)N[C@@H](Cc2c[nH]c3ccccc23)C(=O)N[C@@H](CC(=O)O)C1=O` [compound 1419] ({CH2CO}-[Phe(3-Me)]WD[NHexGly]Y[Nle]DRL[Ahp(2)]PVDCD-NH2; thioether N-14) is 0.0081 µM. In the case of `CCCCCCN1CC(=O)N[C@@H](Cc2ccc(O)cc2)C(=O)N[C@@H](CCCC)C(=O)N[C@@H](CC(N)=O)C(=O)N[C@@H](CCCNC(=N)N)C(=O)N[C@@H](CC(C)C)C(=O)N[C@@H](CCCCC)C(=O)N2CCC[C@H]2C(=O)N[C@@H](C(C)C)C(=O)N[C@@H](CC(=O)O)C(=O)N[C@H](C(=O)NCC(=O)O)CSCC(=O)N[C@@H](Cc2cccc(C)c2)C(=O)N[C@@H](Cc2c[nH]c3ccccc23)C(=O)N[C@@H](CC(=O)O)C1=O` [compound 1420] ({CH2CO}-[Phe(3-Me)]WD[NHexGly]Y[Nle]NRL[Ahp(2)]PVDCG-OH; thioether N-14), the IC50 came out at 0.002 µM. The same measure, in the same setting: the figure for `CCCCCCN1CC(=O)N[C@@H](Cc2ccc(O)cc2)C(=O)N[C@@H](CCCC)C(=O)NCC(=O)N[C@@H](CCCNC(=N)N)C(=O)N[C@@H](CC(C)C)C(=O)N[C@@H](CCCCC)C(=O)N2CCC[C@H]2C(=O)N[C@@H](C(C)C)C(=O)N[C@@H](CC(=O)O)C(=O)N[C@H](C(=O)NCC(=O)O)CSCC(=O)N[C@@H](Cc2cccc(C)c2)C(=O)N[C@@H](Cc2c[nH]c3ccccc23)C(=O)N[C@@H](CC(=O)O)C1=O` [compound 1421] ({CH2CO}-[Phe(3-Me)]WD[NHexGly]Y[Nle]GRL[Ahp(2)]PVDCG-OH; thioether N-14) is 0.0031 µM; for `CCCCCCN1CC(=O)N[C@@H](Cc2ccc(O)cc2)C(=O)N[C@@H](CC(C)C)C(=O)N[C@@H](CC(N)=O)C(=O)N[C@@H](CCCNC(=N)N)C(=O)N[C@@H](CC(C)C)C(=O)N[C@@H](CCCCC)C(=O)N2CCC[C@H]2C(=O)N[C@@H](C(C)C)C(=O)N[C@@H](C(C)C)C(=O)N[C@H](C(=O)NCC(=O)O)CSCC(=O)N[C@@H](Cc2cccc(C)c2)C(=O)N[C@@H](Cc2c[nH]c3ccccc23)C(=O)N[C@@H](CC(=O)O)C1=O` [compound 1422] ({CH2CO}-[Phe(3-Me)]WD[NHexGly]YLNRL[Ahp(2)]PVVCG-OH; thioether N-14) it is 0.0042 µM.
